Assay results from patent publication US4446312A, “C-β-D-Xylopyranoside series compounds” (Seikagaku Kogyo Co., Ltd., priority 1980, dated 1984).
Like-named read-outs stand apart in the source and are kept apart here.

How the values were obtained:
Sarcoma-180 = experiment: Activity against a transplantable cancer, Sarcoma-180; assay type: in vivo, ICR-JCL mice; details: 100 mg/Kg ip once a day for 10 days, starting 24 hrs. after inoculation
Method: Sarcoma-180 cells (1×10^6 cells) were inoculated subcutaneously into the back skin of each of ICR-JCL mice.
Chemotherapy was given intraperitoneally 24 hrs. after inoculation and performed once a day for 10 days. Each specimen to be administered was prepared by dissolving or suspending 30 mg of each compound according to this invention in 1 ml of a pysiological saline or in 1 ml of a 0.2% solution of carboxymethylcellulose in a physiological saline, respectively.
All the solutions and the suspensions thus prepared were injected at a volume of 0.1 ml as a single dose (100 mg/Kg).
The inhibition ratio (%) was calculated according to the following equation: […]
wherein T represents the mean weight of the tumor Sarcoma-180 in a tested group of mice; and C represents the mean weight of the tumor in a control group of mice.

[1] = Acute toxicity by oral or intraperitoneal administration to ddY mice; details: mouse, in vivo, 7 days, Litchfield-Wilcoxon
Method: The acute toxicity of the compound according to this invention was determined by forced oral or intraperitoneal administration thereof to ddY mice.
To prepare each specimen to be administered, a predetermined amount of each compound shown in Table 1 was dissolved in a physiological saline or suspended in a 0.2% solution of carboxymethylcellulose in a physiological saline. Each specimen was administered orally to a ddY mouse via its stomach tube or injected intraperitoneally.

[2] = tested on: synthesis of chondroitin sulfate (glycosaminoglycan) in epiphysial cartilages; experiment: Effect on synthesis of chondroitin sulfate (35S labelled glycosaminoglycan) in epiphysial cartilage; assay type: cell-based, chick embryos
Description: In each Figure, the vertical axis denotes the amount of ^35 S labelled chondroitin sulfate (^35 S cpm×10^-4 /μmol·uronic acid), and the horizontal axis denotes the concentration (mM) of each xylopyranoside compound in the culture medium, and
x x: Total uptake amount of ^35 S labelled chondroitin sulfate,
: Amount of ^35 S labelled chondroitin sulfate in culture medium, and
: Amount of ^35 S labelled chondroitin sulfate in tissue.
Epiphysial cartilages were taken from chick embryos aged 12 days in the Tyrode's medium under ice-cooling, and excess tissues were removed therefrom. To 150 mg of cartilages corresponding to five embryos, 5 ml of BGJb [an entirely synthetic culture medium prepared according to a recipe of GIBCO (Grand Island Biological Company)] was added, followed by pre-incubation at a temperature of 37° C. After replacing the culture medium, further 1 ml of BGJb and 5μCi Na2^35 SO4 were added, and the culture system was kept at 37° C. for 3 hours. The culture medium was then replaced by a fresh chase medium containing no isotope. After keeping the culture system at 37° C. for 1 hour, the culture medium was separated from the tissues. To study the effects of the xyloside compound on the synthesis of glycosaminoglycan, the xyloside compound was added in the predetermined concentration to the pre-incubation and incubation media.
After the incubation, the labeled medium containing Na2^35 SO4 was combined with the chase medium. Pronase-P was added thereto in a 0.5 M tris-HCl buffer solution (pH 8.0), and the resulting mixture was digested at 50° C. for 16 hours. The digested reaction mixture was then subjected to gel filtration through a column (1.5×14 cm) packed with Bio-Gel P-2 (available from Bio-Rad Company) using a 0.2 M ammonium formate solution as elute. In this way, the Vo fraction was collected and was then freeze-dried to give crude glycosaminoglycan.
On the other hand, ice-cooled 4 M guanidine hydrochloride was added to the tissues which were previously separated from the culture medium. The resulting mixture was left to stand overnight at a temperature of -20° C., and then homogenized. The obtained homogenate was left to stand overnight at room temperature and centrifuged at a speed of 8,500 rpm to obtain a supernatant. To the obtained liquid, water was added in an amount threefold that of the supernatant. Then, a 95% ethyl alcohol (containing 1.3% of potassium acetate) was added to the resulting mixture in an amount threefold that of the mixture to obtain a precipitate. This procedure was repeated twice, and the combined precipitates were dried in a desiccator. The obtained precipitates were dissolved in a 0.02 M tris-HCl buffer solution (pH 8.0) and digested with Pronase-P (trade name) (available from Kaken Kagaku Co., Ltd.) in the manner similar to the culture medium described above, thereby obtaining crude glycosaminoglycan.
As the xyloside compound, conventional O-paranitrophenyl-β-D-xylopyranoside, and two compounds according to the present invention viz. C-n-butyl-β-D-xylopyranoside and C-ethyl-β-D-xylopyranoside were used. The effects of these xyloside compounds on the total amount of ^35 S labelled glycosaminoglycan synthesized (^35 S uptake amount), the amount thereof liberated to the culture medium and the amount thereof remaining in the tissues were as shown in FIGS. 1 to 3.

[3] = ip, intraperitoneal, read-out: LD50 (ip)

| Compound | I.R. (inhibition ratio, tumor weight) (Sarcoma-180) [%] | LD50 at 168 h [1, 3] [mg/kg] | LD50 at 168 h ([1]; oral, read-out: LD50 (po)) [mg/kg] | Effectiveness as initiator for the synthesis of chondroitin sulfate [2] | 35S uptake of glycosaminoglycan ([2]; 1 mM) | activity at 1000 µM ([2]; Gallus gallus, 1 mM, read-out: 35S labelled glycosaminoglycan liberated to the culture medium) [%] | fold induction at 1000 µM ([2]; Gallus gallus, 1 mM, read-out: 35S uptake of glycosaminoglycan relative to control) | activity at 1000 µM ([2]; Gallus gallus, 1 mM, read-out: Amount of 35S labelled glycosaminoglycan remaining in the tissues) [%] | 35S uptake of glycosaminoglycan, concentration dependence ([2]; concentration rising from 0.05 mM to 1.0 mM) |
| --- | --- | --- | --- | --- | --- | --- | --- | --- | --- |
| CC[C@@H]1OC[C@@H](O)[C@H](O)[C@H]1O [C--Ethyl-β-D-xylopyranoside, C-Ethyl-β-D-xylopyranoside] | 52.8 | 2400 | 6900 | – | – | – | – | – | – |
| CCCC[C@@H]1OC[C@@H](O)[C@H](O)[C@H]1O [C--n-Butyl-β-D-xylopyranoside, C-n-Butyl-β-D-xylopyranoside] | 69.2 | 2400 | 5800 | – | – | – | – | – | – |
| O=[N+]([O-])c1ccc(O[C@@H]2OC[C@@H](O)[C@H](O)[C@H]2O)cc1 [O-paranitrophenyl-β-D-xylopyranoside] | – | – | – | extremely effective | 40,800 count per minute (cpm) | 95 | 2.35 | 11 | increased |
